Data as given in US11510957B2, “Method for treating or alleviating autoimmune-related diseases” (priority 2016, dated 2022).

Key:
[1] = test system: IL-17 secretion in EL4 murine lymphoma cells; test: Anti-IL-17 secretion in EL4 (murine lymphoma) cells induced with PMA and Ionomycin, ELISA; assay type: cell-based; conditions: PMA 10 ng/ml + Ionomycin 5 ng/ml, 18 hours
Description: EL4 cell line is murine lymphoma cell purchased from Bioresource Collection and Research Center (referred to as BCRC) and cultured in RPMI 1640 medium which contains 10% Fetal Bovine Serum (referred to as FBS), 1.5 g Sodium bicarbonate, 1 mM Sodium pyruvate, lx non-essential amino acids (referred to as NEAA), and 0.5 mM 2-Mecaptoethanol (referred to as 2-ME).
EL4 lymphoma cells were seeded into 96-well plate by 1×10^5 cells per well and 10 μl of the extract of A. tsao-ko HE-06 was added to each well and incubated at 37° C. in 5% CO2 cell incubator for 1 hour. Then, Phorbol-12-myristate-13-acetate (referred to as PMA or TPA) and Ionomycin were added to be the stimulants that induce activation of lymphoma cells, in which the final concentration of PMA was 10 ng/ml and the final concentration of Ionomycin was 5 ng/ml, and additional 18 hours incubation was executed. In the above test, the group of adding both PMA (final concentration of 10 ng/ml) and Ionomycin (final concentration of 5 ng/ml) was considered as the control group.
Thereafter, the cell-containing 96-well plate was centrifuged at 1200 rpm for 5 minutes and the supernatant was collected and transferred to the new 96-well plate. […] 150 μl DMSO was then added to dissolve the […] and the absorbance of 570 nm was measured to assess the cell viability. […]

[2] = test system: TNF-α secretion in LPS-induced acute inflammatory mice; test: TNF-α secretion in LPS-induced acute inflammatory BALB/c mouse model, plasma ELISA; assay type: in vivo; conditions: FIG. 5B
Description: The 6-8 weeks BALB/c male mice were purchased from BioLASCO Taiwan Co., Ltd. In addition to make the feeding condition meeting with national experimental animal guidelines, the batch of mice were marked, sub-cage and weighing soon after acquisition. Then, these mice were placed to the quarantine room of general area for a week of quarantine work. During the quarantine period, observation of mobility and environmental adaptability was performed, and after assessment to be normal, these mice were transferred into the feeding area for experimental implementation. […]
Then the mice were fasted for 2 to 4 hours but regular drinking water was still supplied. […] After administration, the clinical symptoms of the mice were observed and recorded. […] After administration, the clinical symptoms of the mice were observed and recorded.
After 1.5 hours LPS stimulation, the mice were euthanized by excessive CO2 and the whole blood was collected by cardiac puncture blood sampling. Next, the plasma was collected after centrifugation at 6000 rpm and 4° C. for 10 minutes and then TNF-α secretion were analyzed.
The TNF-α secretion in plasma was analyzed according to the following procedure shown in Duoset® ELISA kit. […] Finally, 50 μl of Stop Solution (1N HCl) was added to each well to stop the color reaction, and the absorbance of OD450 nm was measured.

EAE in C57BL/6 mice = test: Experimental autoimmune encephalomyelitis (EAE) mouse model, clinical EAE score; assay type: in vivo; conditions: 30 mg/kg and 100 mg/kg; 14 days
Description: The experimental animals, female C57BL/6 mice, aged about 8 weeks, were purchased from National Laboratory Animal Center (Tainan). After acclimation and quarantine, the mice were approximately 10-12 weeks of age at the time of performing the EAE experiments. The experimental animals were bred in the environment: 12 hours light and 12 hours dark, room temperature of 23±2° C., and relative humidity of 40-70%. During feeding, animals were free to obtain adequate food and drinking water, but after the onset of EAE, the soaked soft feed and agar gel jelly were especially given in the bottom of the feeding cage, so that the onset animals were easier to feed and drink. In addition, during the quarantine and testing period, the animals were observed and recorded by the veterinarian and the experimental staff of ITRI to ensure health of these experimental animals.
The foregoing C57BL/6 mice were administered subcutaneously with 200 μl emulsion including 200 μg MOG35-55 peptide and 400 μg Mycobacterium tuberculosis H37Ra, followed by intraperitoneal injection of 500 ng pertussis toxin for induction of EAE. From the 7th day after induction, the EAE clinical symptoms were recorded daily according to the recognized Ataxia score (grading of nervous system disorder) and EAE score as the scoring criteria (description of Ataxia score and EAE score are as follows). […]

[3] = test system: IMQ-induced psoriasis-like dermatitis in BALB/c mice; test: Imiquimod (IMQ)-induced psoriasis-like dermatitis mouse model, skin irritation score; assay type: in vivo; conditions: 100 mg/kg; 6 days; FIG. 5D
Description: The 8 weeks BALB/c male mice were purchased from BioLASCO Taiwan Co., Ltd. After acclimation and quarantine, the batch of mice were approximately 9-10 weeks of age at the time of performing the experiment of IMQ-induced psoriasis-like dermatitis. The experimental animals were bred in the environment: 12 hours light and 12 hours dark, room temperature of 23±2° C., and relative humidity of 40-70%. During feeding, animals were free to obtain adequate food and drinking water. In addition, during the quarantine and testing period, the animals were observed and recorded by the veterinarian and the experimental staff of ITRI to ensure health of these experimental animals.
Then, the hair on the back of each mouse was shaved, and the shaving area was about 4*2 cm^2. Since day 0, 3.125 mg imiquimod (IMQ) was administered by smearing to the skin of shaved area of each mouse daily for consecutive 6 days. […]
The above-mentioned degree of skin irritation is based on Psoriasis Area and Severity Index (PAST), in which erythema, thickening, and scaling of skin were assessed and analyzed for judging the scale. […]
The mean value and standard error of mean (S.E.M.) of each group were calculated by accumulating the index observed in the same mouse, and t-test statistics was used to distinguish the differences between the groups.

O=CC1=CC[C@H](O)[C@@H]2CCC[C@H]12 [Tsaokoin (TK), tsaokoin]
IC50, concentration causing 50% IL-17 secretion inhibition, EL4 [1]: 12.1 µg/mL
inhibition of TNF-α secretion (in words) [2]: significantly inhibit the secretion of TNF-α
effect on progress of EAE (EAE score) (EAE in C57BL/6 mice): slow down the progress of EAE, and present a dose-dependent effect
clinical symptoms of IMQ-induced psoriasis-like dermatitis [3]: significantly alleviate the clinical symptoms of IMQ-induced psoriasis-like dermatitis
